Reference: patent US20190350890A1, “COMPOSITION FOR PREVENTING OR TREATING HEPATITIS CONTAINING MONOACETYL DIACYLGLYCEROL COMPOUND” (ENZYCHEM LIFESCIENCES CORPORATION, priority 2016, published 2019)

How the values were obtained:
STAT6 [1] = assay: Western blot assay, IL-4-induced STAT6 phosphorylation in Hep3B cells; assay type: cell-based; settings: for phosphorylation of STAT6, comparison of PLAG and PLG: Hep3B cells, anti-phospho-STAT6 Western blot
Method: (§1) Hep3B cells were plated in 12 well plates (2.5×10^5 cells/well) and treated with PLAG at various concentrations (0.1, 1, 10, 100 ug/mL), and after 2 hours, activated with IL-4 for 1 hour. Whole protein extracts were immunoblotted with phospho-STAT6, STAT6, phospho-JAK1 and phosphor-PKCξ/λ Abs (cell signaling).

[2] = tested on: hepatitis induced by concanavalin A; assay: Plasma cytokine analysis (ELISA) in Con A-induced hepatitis mice; assay type: in vivo, Balb/c mice; settings: Con A 20 mg/kg BW i.v., PLAG oral 100 mg/kg BW, blood 18 hours after Con A
Method: (§2) In order to confirm the preventive and therapeutic effects of hepatitis by 1-palmitoyl-2-linoleoyl-3-acetylglycerol (EC-18 or PLAG), the experiment was performed using an attenuation model of hepatitis induced by concanavalin A (hereinafter, referred to as ConA). As an experimental model, 10-week-old Balb/c mice (Koatech, Korea) were maintained under specific pathogen free (SPF) environment and used, and PLAG and PLG (ENZYCHEM Lifesciences, Korea) were prepared before or after in vivo or in vitro treatment. In addition, Hep3B, HepG2, EL-4 and HL-60 cell lines (American Type Culture Collection, ATCC) were incubated under 5% CO2 and a temperature of 37° C. The values in the comparison between groups performed in vivo were analyzed using one analysis method of the analysis of variance (ANOVA), and the values in the comparison of two experimental groups performed in vitro were analyzed using independent student's t test. Statistical significance was assumed to be p<0.05.
(§3) Mice were randomly divided into three groups: control group, Con A-treated group, and PLAG-pretreated group. The Con A and PLAG were all dissolved in PBS (phosphate buffer saline) and used. PBS or PLAG was orally administered to the mice, and after 2 hours, 20 mg/kg BW of Con A was intravenously injected into each of the Con A-treated group and the PLAG-pretreated group. Thereafter, PLAG was orally administered to mice at a dose of 100 mg/kg BW. Here, BW means body weight.
(§4) Blood samples were obtained from cardiac punctures 18 hours after administration of Con A in the mice of Example and centrifuged at 3,000 rpm for 10 minutes. For the measurement of cytokines in liver tissue ligate liquids, the animals were sacrificed and the liver was washed with PBS. The liver was homogenized and filtered using a 70 μm mesh cell strainer (BD Falcon cell strainer, BD Biosciences, Bedford, Mass.) in PBS. The supernatant was also collected by centrifugation at a rate of 2,000 rpm for 5 minutes. The lower cell pellet was resuspended in PBS and analyzed for complete blood cell count (CBC). Plasma samples and supernatants of liver lysate were maintained at minus 20° C. until cytokines were measured. The concentrations of IL-6, IL-10, IL-4, MIP-2 and IFNγ were detected using Set ELISA.

[3] = tested on: hepatitis induced by concanavalin A; assay: Liver tissue cytokine analysis (ELISA, RT-PCR) in Con A-induced hepatitis mice; assay type: in vivo, Balb/c mice
Method: as §2, §3, §4
(§5) Total RNA was isolated from the liver homogenate with TRIzol reagent (Incitrogen, Carlsbad, Calif.). HL-60 cells were plated in 12-well plates (1×10^6/well) and treated in the same manner as in Experimental Example 4. cDNA was synthesized from total cellular RNA using M-MLV reverse transcriptase and oligo-dT (Promega, Madison, Wis.).
(§6) The amount of cDNA amplification of the reaction samples was confirmed by 2% agarose gel (Roche Applied Science, Salt Lake City, Utah) electrophoresis.

[4] = tested on: hepatitis induced by concanavalin A; assay: Hematological analysis (CBC) of whole blood and liver samples; assay type: in vivo, Balb/c mice; settings: PLAG additionally administered
Method: as §2, with “Statistical significance was assumed to be p<0.05.” left out
Whole blood and liver samples were collected from the mice of Example 1 18 hours after administration of Con A. The cleaved liver collected from the mouse was homogenized as described in Experimental Example 1. Complete blood count (CBC) analysis included whole white blood cell quantification, part of neutrophils and lymphocytes of whole white blood cells, and hematology analysis was performed using Mindray BC 5300 (Shenzhen Mindray Bio-medical Electronics, China).

[5] = tested on: hepatitis induced by concanavalin A; assay: Histological analysis of liver (hematoxylin-eosin, anti-neutrophil antibody staining); assay type: in vivo, Balb/c mice
Method: as §2, §3
The site of liver was collected from a mouse 8 hours after administration of Con A to the mouse of Example 1. The site of liver was fixed in 10% neutral buffered formalin, embedded in paraffin and cut to a thickness of 5 um. After removing the paraffin and rehydration, the flakes were stained with hematoxylin and eosin. In addition, for identification of neutrophils, the site of liver was stained with anti-mouse neutrophil antibody. All samples were evaluated histologically under a Leica (Leica, Wetzlar, Germany) optical microscope, and digital images were taken at ×200 magnification.

Hep3B cells = assay: WST assay, cytotoxicity in Hep3B cells; assay type: cell-based; settings: 24 hours of incubation, PLAG 1,000 ug/mL or greater
Method: (§7) FIG. 7 is a graph showing the results of WST assay of […] depending on the dose of PLAG when the composition of the present invention was administered, and FIG. 8 is a graph showing the inhibitory effect of IL-4-induced STAT6 activity and related signaling mechanism depending on the dose of PLAG when the composition of the present invention was administered. […] HepG2 and Hep3B were used as liver cells, and HL-60 was used as neutrophil cells. Cytotoxicity of EC-18 in liver cells and leukocytes was confirmed by WST assay. Survival of Hep3B and HL-60 cells was not affected during 24 hours of incubation with PLAG each having a concentration of 1,000 ug/mL or greater (see FIG. 7). Based on the results of the WST assay, 100, 10, and 1 ug/mL of PLAG were used for the cells. The activities of PKC-ξ/λ, JAK1 and STAT6 played an important role in ConA-induced hepatitis, and these kinases were increased by IL-4. […] Therefore, it can be seen that PLAG can effectively control IL-4-induced hepatitis by alleviating PKC-ξ/λ activity.

HL-60 cells [6] = assay: WST assay, cytotoxicity in HL-60 cells; assay type: cell-based; settings: 24 hours of incubation, PLAG 1,000 ug/mL or greater
Method: as §7

PKC-ξ/λ = assay: Western blot assay, IL-4-induced PKC phosphorylation; assay type: cell-based; settings: dose-dependent; 0.1, 1, 10, 100 ug/mL, 2 hours before IL-4 for 1 hour
Method: as §1
(§8) HL-60 cells were plated in 12-well plates (1×10^6/well) and treated as described above. Total protein extracts were immunoblotted with phospho-PKC homologous proteins (δ, θ, ξ/λ, α/β) (Cell Signaling) and GAPDH Abs (Santa Cruz Biotechnology Inc., CA). Detection was performed using Immobilon Western Chemiluminescent HRP Substrate (Millipore Corporation, Billerica, Mass.).

PKCδ = assay: Western blot assay, phospho-PKC isotypes in HL-60 cells: PKCδ; assay type: cell-based; settings: IL-4 stimulation
Method: as §8

PKCθ = assay: Western blot assay, phospho-PKC isotypes in HL-60 cells: PKCθ; assay type: cell-based; settings: IL-4 stimulation
Method: as §8

PKCα/β = assay: Western blot assay, phospho-PKC isotypes in HL-60 cells: PKCα/β; assay type: cell-based; settings: IL-4 stimulation
Method: as §8

STAT6 [7] = assay: Luciferase reporter gene analysis, STAT6 transcriptional activity in HepG2 and Hep3B cells; assay type: cell-based; settings: 10 and 100 ug/ml of PLAG; 10 ng/ml IL-4 for 6 hours
Method: HepG2 and Hep3B cells were transfected into reporter luciferase plasmids containing four pairs of STAT6 binding sites (p4xSTAT6-Luc2P; Addgene, Cambridge, Mass.), and the reporter vector was transfected into the Attractene reagent and cell line. For the activity of STAT6 reporter vectors, 10 ng/ml of IL-4 was treated with cells for 6 hours, and the luciferase activity was measured by a luminometer using a luciferase assay system. The luciferase activity of each sample was normalized to those corresponding to the PLAG transduced samples.

HL-60 cells [8] = assay: RT-PCR analysis of IL-8 and VCAM-1 expression in IL-4-stimulated HL-60 cells; assay type: cell-based, human; settings: HL-60 cells stimulated by IL-4, RT-PCR, dose-dependent
Method: as §5, §6

HL-60 cells [9] = assay: Neutrophil adsorption analysis on fibronectin; assay type: cell-based; settings: 100, 10, and 1 ug/mL of PLAG; 10 ng/ml of IL-4; WST-1 assay and cell number
From the text: In order to determine the effect of PLAG on neutrophil adsorption of fibronectin, 24-well tissue culture plates were coated with fibronectin as in previous studies (Wang Y H, Wang W Y, Liao J F, Chen C F, Hou Y C, Liou K T, Chou Y C, et al. Prevention of macrophage adhesion molecule-1 (Mac-1)-dependent neutrophil firm adhesion by taxifolin through impairment of protein kinase-dependent NADPH oxidase activation and antagonism of G protein-mediated calcium influx. Biochem Pharmacol 2004; 67:2251-2262.). The plates were incubated with 25 ug/ml of fibronectin at 37° C. for 2 hours. The unbounded protein was removed by washing, neutrophils were pre-treated with PLAG 2 hours before the experiment, and neutrophil activity was performed with IL-4 for 4 hours. Non-adsorbed neutrophils were eluted by aspiration and washed twice with PBS. Attached neutrophils were determined by calculating the number of cells at the bottom of each well using a homocytometer. The remaining adsorbed cells were stored in an incubator for 18 hours, at which time the cells were exposed to WST-1 reagent (Roche Applied Science) for spectrometric evaluation.

[10] = ConA-administered mice, PLAG further administered, vs ConA group
[11] = RT-PCR, ConA-induced liver tissue

CCCCC/C=C\C/C=C\CCCCCCCC(=O)OC(CO)COC(=O)CCCCCCCCCCCCCCC (stereo not drawn) [PLG, reference compound]
phosphorylation of STAT6, comparison of PLAG and PLG (STAT6 [1]): not altered

CCCCC/C=C\C/C=C\CCCCCCCC(=O)OC(COC(C)=O)COC(=O)CCCCCCCCCCCCCCC (racemic) [PLAG, 1-palmitoyl-2-linoleoyl-3-acetyl-rac-glycerol]
IL-4 in mouse plasma ([2]; vs Con A group): decreased | IL-6 in mouse plasma ([2]; vs Con A group): decreased | IL-10 in mouse plasma ([2]; vs Con A group): decreased | MIP-2 in mouse plasma ([2]; vs Con A group): decreased | concentration of IFNγ in plasma ([2]; vs mice not treated with PLAG): not significantly reduced | expression of IL-4 (protein and mRNA) in liver tissue [3, 10]: significantly reduced | expression of MIP-2 (protein and mRNA) in liver tissue [3, 10]: significantly reduced | expression of CXCR4 mRNA in liver tissue [3, 11]: down-regulates | expression of adsorbed molecules ICAM-1 and VCAM in liver tissue [3, 11]: does not affect | circulating neutrophils in blood ([4]; CBC 18 hours after Con A): significantly increased | number of neutrophils present in the liver ([4]; CBC of liver homogenate 18 hours after Con A): significantly reduced | neutrophils in liver enhanced by stimulation with ConA ([5]; anti-neutrophil antibody staining, liver 8 hours after Con A): effectively alleviated | pathological changes of liver (hepatocyte damage, neutrophil infiltration, necrotic foci) ([5]; hematoxylin-eosin staining, PLAG 100 mg/kg, 8 hours after ConA i.v.): markedly reduced | liver cell damage ([5]; liver 8 hours after Con A, immunohistological staining, vs ConA-treated liver tissue): hardly damaged | survival of Hep3B cells (Hep3B cells): not affected | survival of HL-60 cells (HL-60 cells [6]): not affected | phosphorylation of STAT6, comparison of PLAG and PLG (STAT6 [1]): significantly reduced | phosphorylation of STAT6 induced by IL-4 (STAT6 [1]; dose-dependent, 0.1, 1, 10, 100 ug/mL, 2 hours before IL-4 for 1 hour): considerably alleviated | phosphorylation of PKC induced by IL-4 (PKC-ξ/λ): considerably alleviated | relaxation of the activity of PKCδ (PKCδ): affects the relaxation | relaxation of the activity of PKCθ (PKCθ): affects the relaxation | relaxation of PKCα/β activity (PKCα/β): did not affect | STAT6 transcriptional activity (STAT6 [7]): effectively prevented | expression of IL-8 (HL-60 cells [8]): effectively suppressed | expression of VCAM-1 (HL-60 cells [8]): effectively suppressed | adsorption of HL-60 to coated fibronectin (HL-60 cells [9]): significantly reduced
